According to patent publication US10092002B2, “Herbicidal composition comprising nicosulfuron or its salt and S -metolachlor or its salt” (ISHIHARA SANGYO KAISHA, LTD., priority 2011, dated 2018):

Key:
Format in all cases: in vivo
[1] = tested on: green kyllinga (Kyllinga brevifolia Rottb. var. leiolepis) having lowered sensitivity to herbicides; assay: Test Example 6: foliar treatment of green kyllinga having lowered sensitivity to herbicides, visual growth inhibition rate; settings: foliar treatment at height 5 to 7 cm, 21st day after treatment
Excerpt: When the herbicidal activity in a case where two active ingredients are combined, is larger than the simple sum of the respective herbicidal activities of the two active ingredients (the expected activity), it is called a synergistic effect. The activity expected by the combination of two active ingredients can be calculated as follows (Colby S. […] E1=α+β-(α×β÷100) On the 22nd day after treatment, the state of growth of the common cocklebur was visually observed to determine the growth inhibition rate in accordance with the following evaluation standard. The growth inhibition rate (%) (measured value) and the growth inhibition rate (%) (calculated value) calculated by the Colby's formula are shown in Table 1. […] Upland field soil was put into a 1/1,000,000 ha pot, and rhizomes of green […] brevifolia Rottb. var. leiolepis) having lowered sensitivity to herbicides were planted. When the height of green […] reached 5 to 7 cm, predetermined amounts of […] Dual Gold (tradename) were diluted with water (corresponding to 300 Uha) and applied for foliar treatment by a small sprayer. On the 21st day after treatment, the state of growth of the green […] visually observed to determine the growth inhibition rate.

[2] = tested on: common cocklebur (Xanthium strumarium L.); assay: Test Example 1: foliar treatment of common cocklebur in pots, visual growth inhibition rate; settings: foliar treatment at 4.3 to 4.8-leaf stage, 22nd day after treatment
Excerpt: When the herbicidal activity in a case where two active ingredients are combined, is larger than the simple sum of the respective herbicidal activities of the two active ingredients (the expected activity), it is called a synergistic effect. The activity expected by the combination of two active ingredients can be calculated as follows (Colby S. R., “Weed”, vol. 15, p. 20-22, 1967). E1=α+β-(α×β÷100) In a case where three active ingredients are combined, the activity can be similarly calculated as follows. […] Upland field soil was put into a 1/1,000,000 ha pot, and seeds of common cocklebur (Xanthium strumarium L.) were sown. […] Dual Gold, manufactured by Syngenta Crop Protection AG), SC agent containing terbuthylazine as an active ingredient (tradename: Click, manufactured by BASF), SC agent containing mesotrione as an active ingredient (tradename: Callisto, manufactured by Syngenta Crop Protection AG) and WG agent containing prosulfuron as an active ingredient (tradename: Peak, manufactured by Syngenta Crop Protection AG) were diluted with water in an amount corresponding to 1,000 Uha, and applied for foliar treatment by a small sprayer. On the 22nd day after treatment, the state of growth of the common cocklebur was visually observed to determine the growth inhibition rate in accordance with the following evaluation standard. The growth inhibition rate (%) (measured value) and the growth inhibition rate (%) (calculated value) calculated by the Colby's formula are shown in Table 1.

[3] = tested on: wild oat (Avena fatua L.); assay: Test Example 3: soil treatment, wild oat, visual growth inhibition rate; settings: soil treatment the day after sowing, 14th day after treatment
Excerpt: When the herbicidal activity in a case where two active ingredients are combined, is larger than the simple sum of the respective herbicidal activities of the two active ingredients (the expected activity), it is called a synergistic effect. The activity expected by the combination of two active ingredients can be calculated as follows (Colby S. R., “Weed”, vol. 15, p. 20-22, 1967). […] In a case where three active ingredients are combined, the activity can be similarly calculated as follows. […] On the 22nd day after treatment, the state of growth of the common cocklebur was visually observed to determine the growth inhibition rate in accordance with the following evaluation standard. The growth inhibition rate (%) (measured value) and the growth inhibition rate (%) (calculated value) calculated by the Colby's formula are shown in Table 1. […] On the 14th day after treatment, the state of growth of the wild oat was visually observed to determine the growth inhibition rate.

[4] = tested on: Japanese millet (Echinochloa utilis Ohwi et Yabuno); assay: Test Example 2: soil treatment, Japanese millet, visual growth inhibition rate; settings: soil treatment the day after sowing, 27th day after treatment
Excerpt: When the herbicidal activity in a case where two active ingredients are combined, is larger than the simple sum of the respective herbicidal activities of the two active ingredients (the expected activity), it is called a synergistic effect. The activity expected by the combination of two active ingredients can be calculated as follows (Colby S. R., “Weed”, vol. 15, p. 20-22, 1967). E1=α+β−(α×β÷100) On the 22nd day after treatment, the state of growth of the common cocklebur was visually observed to determine the growth inhibition rate in accordance with the following evaluation standard. The growth inhibition rate (%) (measured value) and the growth inhibition rate (%) (calculated value) calculated by the Colby's formula are shown in Table 1. […] Upland field soil was put into a 1/1,000,000 ha pot, and seeds of Japanese millet (Echinochloa utilis Ohwi et Yabuno) were sown. […] On the 27th day after treatment, the state of growth of the Japanese millet was visually observed to determine the growth inhibition rate.

[5] = tested on: sunn-hemp (Crotalaria juncea L.); assay: Test Example 4: soil treatment, sunn-hemp, visual growth inhibition rate; settings: soil treatment the day after sowing, 28th day after treatment
Excerpt: In a case where three active ingredients are combined, the activity can be similarly calculated as follows. E2=(α+β+γ)−(αβ+αγ+βγ)/100+(αβγ)/10000 where α: growth inhibition rate when treated with x (g/ha) of herbicide X,
Growth inhibition rate (%)=0 (equivalent to the non-treated area) to 100 (complete kill)
Upland field soil was put into a 1/300,000 ha pot, and seeds of sunn-hemp (Crotalaria juncea L.) were sown.

Compound	Growth inhibition rate (%) of green kyllinga, Measured value ([1]; dose 500 g/ha) [%]	Growth inhibition rate (%) of green kyllinga, Measured value ([1]; dose 1000 g/ha) [%]	Growth inhibition rate (%) of common cocklebur, Measured value ([2]; dose 1000 g/ha) [%]	Growth inhibition rate (%) of wild oat, Measured value ([3]; dose 250 g/ha) [%]	Growth inhibition rate (%) of wild oat, Measured value ([3]; dose 2000 g/ha) [%]	Growth inhibition rate (%) of Japanese millet, Measured value ([4]; dose 500 g/ha) [%]	Growth inhibition rate (%) of sunn-hemp, Measured value ([5]; dose 250 g/ha) [%]	Growth inhibition rate (%) of sunn-hemp, Measured value ([5]; dose 2000 g/ha) [%]	inhibition at 30 g/ha ([1]; Cyperus brevifolius, dose 30 g/ha, read-out: Growth inhibition rate (%) of green kyllinga, Measured value) [%]	inhibition at 100 g/ha ([1]; Cyperus brevifolius, dose 100 g/ha, read-out: Growth inhibition rate (%) of green kyllinga, Measured value) [%]	inhibition at 30 g/ha ([2]; Xanthium strumarium, dose 30 g/ha, read-out: Growth inhibition rate (%) of common cocklebur, Measured value) [%]	inhibition at 10 g/ha ([3]; Avena fatua, dose 10 g/ha, read-out: Growth inhibition rate (%) of wild oat, Measured value) [%]	inhibition at 100 g/ha ([3]; Avena fatua, dose 100 g/ha, read-out: Growth inhibition rate (%) of wild oat, Measured value) [%]	inhibition at 15 g/ha ([4]; dose 15 g/ha, read-out: Growth inhibition rate (%) of Japanese millet, Measured value) [%]	inhibition at 10 g/ha ([5]; Crotalaria juncea, dose 10 g/ha, read-out: Growth inhibition rate (%) of sunn-hemp, Measured value) [%]	inhibition at 100 g/ha ([5]; Crotalaria juncea, dose 100 g/ha, read-out: Growth inhibition rate (%) of sunn-hemp, Measured value) [%]
a mixture of (aRS,1S)-2-chloro-6′-ethyl-N-(2-methoxy-1-methylethyl)aceto-o-toluidide (80 to 100%) and (aRS,1R)-2-chloro-6′-ethyl-N-(2-methoxy-1-methylethyl)aceto-o-toluidide (20 to 0%) [S-metolachlor]	15	45	0	15	60	80	0	0								
COc1cc(OC)nc(NC(=O)NS(=O)(=O)c2ncccc2C(=O)N(C)C)n1 [Nicosulfuron, 2-(4,6-dimethoxypyrimidin-2-ylcarbamoylsulfamoyl)-N,N-dimethylnicotinamide]									20	40	0	10	40	5	0	0
